Measured values as given in patent publication US20220202610A1, “CONTACT LENS WITH SUSTAINED RELEASE PROPERTY” (priority 2020, published 2022).

Columns and labels:
[1] = Release of lens drug (menthol): drug loading, moist heat sterilization and release in saline, HPLC; type: physicochemical; conditions: 121° C., 30 minutes
Method: (§1) Sampling time point: 0, 2, 4 and 8 hours (N=3)
First group: P-2.5HPC7/P6k-38CL
(1) Single drug-loaded lens was placed in a 5 mL ampoule. 1 mL of saline was added as a release medium. The lens was placed in a shake oven (MS Hybridization Shaking Oven, MO-AOR, Major Science), and a drug release test was conducted under the operating parameters of 35° C. and 100 rpm. No release solution was replaced throughout. Sampling: the lens was taken out at each time point. The drug was extracted with ethanol (98 wt %). The drug content was analyzed by HPLC with RP-C18 column. After the lens was taken out, no drug release test was performed.
(2) The extraction method of menthol in the lens: one lens was taken out of the ampoule used for the release test. Lens surface moisture was fully absorbed with a lens cleaning paper. The one lens was immersed in 1 mL of ethanol (98 wt %) to stand for 8 hours to extract the drug. Then the drug content was analyzed by HPLC.

[2] = Release of lens drug (dexamethasone): drug loading, moist heat sterilization and release in saline, HPLC; type: physicochemical; conditions: 121° C., 30 minutes
Method: as §1
(1) Single drug-loaded lens was placed in a 5 mL ampoule. 1 mL of saline was added as a release medium. The lens was placed in a shake oven (MS Hybridization Shaking Oven, MO-AOR, Major Science), and a drug release test was conducted under the operating parameters of 35° C. and 100 rpm. The drug release solution was replaced with fresh saline every 2 hours.
(2) The drug content in the lens preservation solution and the drug content in the lens were analyzed by HPLC with RP-C18 column. The extraction method of drug (Dexamethasone, DEX) in the lens: one lens was taken out of the preservation solution. Lens surface moisture was fully absorbed with a lens cleaning paper. The one lens was immersed in 1 mL of methanol to stand for 8 hours to extract the drug. Then the drug content was analyzed by HPLC.

In the case of CC1CCC(C(C)C)C(O)C1 (centres unmarked) [menthol], the “menthol in the lens preservation solution after the moist heat sterilization” value [1] is reported as “most of the menthol in the lens preservation solution escapes”.

In the case of Cn1c(=O)c2c(ncn2C)n(C)c1=O [caffeine], the “loss caused by the moist heat sterilization” value [2] is reported as “hardly causes the loss”.
